Measurements from doi:10.1101/2025.01.28.635346v1 (bioRxiv, 2025).
Each block holds one compound with its values, some of them ahead of it. Bridge positions count the residues as written; N and C are the ends. Peptide text beside a SMILES is read from it.

Experiments:
Type in all cases: binding
[1] = biological target: integrin αvβ6 (Homo sapiens, UniProt P06756+P18564); assay: AlphaLISA competition assay vs LAP, biotinylated αvβ6
[2] = biological target: integrin αvβ8 (Homo sapiens, UniProt P06756+P26012); assay: AlphaLISA competition assay vs LAP, biotinylated αvβ8
[3] = biological target: integrin αvβ3 (Homo sapiens, UniProt P05106+P06756); assay: AlphaLISA competition assay vs LAP, biotinylated αvβ3

SMILES: CC[C@H](C)[C@H](NC(=O)[C@@H]1CCCN1C(=O)[C@H](Cc1ccccc1)NC(=O)[C@H](CC(=O)O)NC(=O)CNC(=O)[C@H](CCCNC(=N)N)NC(=O)[C@@H](NC(=O)[C@H](Cc1ccccc1)NC(=O)[C@H](Cc1ccc(O)cc1)NC(=O)[C@@H]1CCC(=O)NCC(=O)NCC(=O)N[C@@H](C)C(=O)NCC(=O)N[C@@H](Cc2c[nH]cn2)C(=O)N[C@@H](C(C)C)C(=O)N2CCC[C@H]2C(=O)N1)C(C)C)C(=O)N[C@@H](CO)C(=O)N[C@@H](Cc1ccccc1)C(=O)N[C@@H](Cc1ccc(O)cc1)C(=O)NCC(=O)O [lassotide 3] (GGAGHVPEYFVRGDFPISFYG-OH; lactam N-8; C-terminus assumed)
- IC50 [1]: 253 nM
- IC50 [2]: 295 nM
- IC50 [3]: 1 nM

SMILES: CC[C@H](C)[C@H](NC(=O)[C@@H]1CCCN1C(=O)[C@H](CC(C)C)NC(=O)[C@H](CC(=O)O)NC(=O)[C@@H]1CCCN1C(=O)[C@H](CCCNC(=N)N)NC(=O)[C@@H](NC(=O)[C@H](Cc1ccccc1)NC(=O)[C@H](Cc1ccc(O)cc1)NC(=O)[C@@H]1CCC(=O)NCC(=O)NCC(=O)N[C@@H](C)C(=O)NCC(=O)N[C@@H](Cc2c[nH]cn2)C(=O)N[C@@H](C(C)C)C(=O)N2CCC[C@H]2C(=O)N1)C(C)C)C(=O)N[C@@H](CO)C(=O)N[C@@H](Cc1ccccc1)C(=O)N[C@@H](Cc1ccc(O)cc1)C(=O)NCC(=O)O [lassotide 10] (GGAGHVPEYFVRPDLPISFYG-OH; lactam N-8; C-terminus assumed)
- IC50 [1]: > 10000 nM
- IC50 [2]: > 10000 nM
- IC50 [3]: > 10000 nM

SMILES: CC[C@H](C)[C@H](NC(=O)CNC(=O)[C@@H](NC(=O)[C@H](Cc1ccccc1)NC(=O)[C@H](Cc1ccc(O)cc1)NC(=O)[C@@H]1CCC(=O)NCC(=O)NCC(=O)N[C@@H](CCCNC(=N)N)C(=O)NCC(=O)N[C@@H](CC(=O)O)C(=O)N[C@@H](CC(C)C)C(=O)N2CCC[C@H]2C(=O)N1)C(C)C)C(=O)NCC(=O)N[C@H](C(=O)N1CCC[C@H]1C(=O)N[C@H](C(=O)N[C@@H](CO)C(=O)N[C@@H](Cc1ccccc1)C(=O)N[C@@H](Cc1ccc(O)cc1)C(=O)NCC(=O)O)[C@@H](C)CC)[C@@H](C)O [lassotide 11] (GGRGDLPEYFVGIGTPISFYG-OH; lactam N-8; C-terminus assumed)
- IC50 [1]: > 10000 nM
- IC50 [2]: > 10000 nM
- IC50 [3]: > 10000 nM

SMILES: CC[C@H](C)[C@H](NC(=O)[C@@H]1CCCN1C(=O)[C@@H](NC(=O)[C@H](CCCNC(=N)N)NC(=O)CNC(=O)[C@H](CC(=O)O)NC(=O)[C@H](CC(C)C)NC(=O)[C@H](Cc1ccccc1)NC(=O)[C@H](Cc1ccc(O)cc1)NC(=O)[C@@H]1CCC(=O)NCC(=O)NCC(=O)N[C@@H](C)C(=O)NCC(=O)N[C@@H](Cc2c[nH]cn2)C(=O)N[C@@H](C(C)C)C(=O)N2CCC[C@H]2C(=O)N1)[C@@H](C)O)C(=O)N[C@@H](CO)C(=O)N[C@@H](Cc1ccccc1)C(=O)N[C@@H](Cc1ccc(O)cc1)C(=O)NCC(=O)O [lassotide 9] (GGAGHVPEYFLDGRTPISFYG-OH; lactam N-8; C-terminus assumed)
- IC50 [1]: > 10000 nM
- IC50 [2]: 1300 nM
- IC50 [3]: > 10000 nM

SMILES: CC[C@H](C)[C@H](NC(=O)[C@H](CC(C)C)NC(=O)[C@H](CC(=O)O)NC(=O)CNC(=O)[C@H](CCCNC(=N)N)NC(=O)CNC(=O)[C@@H](NC(=O)[C@H](Cc1ccccc1)NC(=O)[C@H](Cc1ccc(O)cc1)NC(=O)[C@@H]1CCC(=O)NCC(=O)NCC(=O)N[C@@H](C)C(=O)NCC(=O)N[C@@H](Cc2c[nH]cn2)C(=O)N[C@@H](C(C)C)C(=O)N2CCC[C@H]2C(=O)N1)C(C)C)C(=O)N[C@@H](CO)C(=O)N[C@@H](Cc1ccccc1)C(=O)N[C@@H](Cc1ccc(O)cc1)C(=O)NCC(=O)O [lassotide 8] (GGAGHVPEYFVGRGDLISFYG-OH; lactam N-8; C-terminus assumed)
- IC50 [1]: 478 nM
- IC50 [2]: 466 nM
- IC50 [3]: 2560 nM

SMILES: CC[C@H](C)[C@H](NC(=O)[C@@H]1CCCN1C(=O)[C@@H](NC(=O)[C@H](CC(C)C)NC(=O)[C@H](CC(=O)O)NC(=O)CNC(=O)[C@H](CCCNC(=N)N)NC(=O)[C@H](Cc1ccccc1)NC(=O)[C@H](Cc1ccc(O)cc1)NC(=O)[C@@H]1CCC(=O)NCC(=O)NCC(=O)N[C@@H](C)C(=O)NCC(=O)N[C@@H](Cc2c[nH]cn2)C(=O)N[C@@H](C(C)C)C(=O)N2CCC[C@H]2C(=O)N1)[C@@H](C)O)C(=O)N[C@@H](CO)C(=O)N[C@@H](Cc1ccccc1)C(=O)N[C@@H](Cc1ccc(O)cc1)C(=O)NCC(=O)O [lassotide 7] (GGAGHVPEYFRGDLTPISFYG-OH; lactam N-8; C-terminus assumed)
- IC50 [1]: 2040 nM
- IC50 [2]: 485 nM
- IC50 [3]: 571 nM

- IC50 [1]: > 10000 nM
- IC50 [2]: > 10000 nM
- IC50 [3]: > 10000 nM
SMILES: CC[C@H](C)[C@H](NC(=O)CNC(=O)[C@@H](NC(=O)[C@H](Cc1ccccc1)NC(=O)[C@H](Cc1ccc(O)cc1)NC(=O)[C@@H]1CCC(=O)NCC(=O)NCC(=O)N[C@@H](C)C(=O)NCC(=O)N[C@@H](Cc2cnc[nH]2)C(=O)N[C@@H](C(C)C)C(=O)N2CCC[C@H]2C(=O)N1)C(C)C)C(=O)NCC(=O)N[C@H](C(=O)N1CCC[C@H]1C(=O)N[C@H](C(=O)N[C@@H](CO)C(=O)N[C@@H](Cc1ccccc1)C(=O)N[C@@H](Cc1ccc(O)cc1)C(=O)NCC(=O)O)[C@@H](C)CC)[C@@H](C)O [lassotide 1, MccJ25, reference compound] (GGAGHVPEYFVGIGTPISFYG-OH; lactam N-8)
